# Measured values reported in a melting point compilation (Tetko et al.; mined from patent text by program, amines drawn as free bases though some values may be those of a salt).
row,SMILES,melting point
1,CSc1[nH]n(-c2c(Cl)cc(Cl)cc2Cl)c2nc(Cc3cccc(O)c3)nc(=O)c1-2,264 to 266 °C
2,CC(C)OC(=O)c1ccc(=O)n(CCNC(=O)c2cccnc2)c1,160 to 161 °C
3,C#Cc1cc(Oc2cnc(N)nc2N)c(C#C)cc1OC,163 to 164 °C
4,CS(=O)(=O)c1ccc(C2=C(c3ccc(Cl)cc3)C(=O)N(C3CCCCC3)C2)cc1,142 to 144 °C
5,CCOC(=O)COc1ccc(C(=O)[C@@H](NC(=O)c2ccc(C(=N)NC(=O)OC(C)(C)C)cc2)[C@@H](C)OC(C)(C)C)cc1,95 to 97 °C
6,CCCCc1ccc(-n2c(-c3ccc(SC)cc3)nc(SC)c(C#N)c2=O)cc1,138 to 141 °C
7,CC(=NCc1ccc(Cl)cc1Cl)c1ccc(OCC(O)(Cn2cncn2)C(C)(C)C)cc1 (configuration not stated),101 °C
8,O=C1c2ccccc2C(=O)N1CCCCOc1cccc2c1SCCC2,116 °C
9,O=C(NC(Cc1ccc(OCc2ccccc2)cc1)C(=O)O)c1ccc2nc(-c3ccc(Cl)cc3)cn2c1 (configuration not stated),278 to 280 °C
10,O=C1CCN(C(=O)c2ccc(Cl)cc2)CC1,61 to 63 °C
11,CCOC(=O)Nc1c(F)cc(Cl)c2c1OC(C)(C)C2,114 to 115 °C
12,Cc1onc(C(=O)c2ccc(Cl)cc2)c1[N+](=O)[O-],173 to 175 °C
13,COC(=O)Cc1ccc(OCC(C)NCC(O)c2cccc(F)c2)cc1 (configuration not stated),52 °C
14,O=C(O)c1ccc(OCCN2CCOCC2)cc1,112 to 114 °C
15,CCOC(=O)c1cc(Oc2ccc(C(F)(F)F)cc2Cl)ccc1[N+](=O)[O-],156 to 160 °C
16,COc1c(C)c(C)c(OC)c(CCCOc2ccc(CC3SC(=O)NC3=O)cc2)c1C (configuration not stated),111 to 113 °C
17,Brc1cccc2c1ccc1ccccc12,90 to 91 °C
18,CON=Cc1c[nH]c(-c2ccc(F)cc2)c1-c1ccncc1,242 to 248 °C
19,CC(C)c1ccccc1Nc1nc(N)nc2c1-c1ccccc1C2,193 to 195 °C
20,Nc1ncc(-c2cnc3ccc(-c4ccc(OCC5(N)COC5)cc4)nn23)cc1C(F)(F)F,198 to 200 °C
21,COc1ccc(CCN(O)C(=O)C(N)=O)cc1OC,143 to 144 °C
22,COC(=O)c1ccnc(-c2cccc3cc(Cc4cccc(C(F)(F)F)c4)sc23)c1,106 to 107 °C
23,Cc1cccc(C)c1NC(N)=NOC1CCCCO1 (configuration not stated),196 to 197 °C
24,CC(C)(C)c1ccc2c(c1)C(C(=O)Nc1c(Cl)cccc1Cl)c1ccccc1CO2 (configuration not stated),115 to 117 °C
25,O=C1N[C@@H](Cc2ccccc2)C(=O)N/C1=C\c1ccccc1,275 to 276 °C
26,COc1ccc(S(=O)(=O)N(Cc2cccnc2)[C@@H](C(=O)NOCc2ccccc2)C(C)C)cc1,74.5 to 76 °C

row,SMILES,melting point
1,C=CCOC(=O)c1c(C)nc2c(cnn2C/C=C\CC)c1N,78 to 81 °C
2,Oc1ccc(-c2c3ccccc3c(C(F)(F)F)c3sc4ccccc4c23)cc1,210 to 211 °C
3,CC(=O)Oc1c(C(C)(C)C)cc(N(C)c2ccn(-c3ccccc3)n2)cc1C(C)(C)C,102 to 103 °C
4,CCOC(=O)C1=C(COCCn2c(C)nc3ccccc32)NC(C)=C(C(=O)NC(C)(C)C)C1c1ccccc1Cl (configuration not stated),157 to 161 °C
5,Cc1cc(OC(=O)c2ccc(Cl)cc2)n(C)n1,100 to 101 °C
6,Cc1cc([N+](=O)[O-])cnc1CCCC#N,51.5 to 53 °C
7,O=C(O)[C@@H]1CCCN1C(=O)c1ccccc1,152 to 154 °C
8,Clc1cncc(Cl)c1C1=NC(c2ccc(Br)cc2)CO1 (configuration not stated),102 to 103 °C
9,COc1cc(C(=O)Cl)ccc1OCc1ccccc1,63 to 65 °C
10,ON=Cc1cccc(OCCN2CCC(Cc3ccccc3)CC2)c1,141 to 143 °C
11,O=C(Nc1ccc([N+](=O)[O-])cc1O)Nc1cc(Cl)ccc1O,193 to 194 °C
12,CC1(C)CCC(C(=O)N2CCC[C@H]2C(=O)O)C1S (some centres not stated),153 °C
13,CCOC(=O)c1cnc2ccnn2c1Cl,93 to 95 °C
14,COc1ccc(-c2nc(Sc3ccccc3)[nH]c2-c2ccc(OC)cc2)cc1,177 to 179 °C
15,O=S(=O)(c1ccc(I)cc1)N1CCC(Br)(Br)C(c2ccc(Cl)c(C(F)(F)F)c2)=N1,148 to 150 °C
16,Nc1cccnc1Nc1cc(Cl)ccc1C(=O)c1ccccc1,153 to 155 °C
17,CCCCCCNC(=O)c1cnc(OCC(O)CNC(C)C)nc1 (configuration not stated),114 to 115 °C
18,COc1cccc(-c2cc3c(n2-c2ccc(O)c(C(=O)O)c2)CCCC3)c1,175 to 177 °C
19,O=c1c2cc(F)ccc2nc(NCc2ccccn2)n1-c1ccccc1Cl,156 to 158 °C
20,CCOC(=O)c1cc2c(F)cccc2[nH]c1=O,180 °C
21,CC(=O)C(=Cc1cc([N+](=O)[O-])c(O)c([N+](=O)[O-])c1)C(C)=O,158 °C
22,Nc1c2c(nc3cccc(F)c13)CCCC2,175 °C
23,CN(c1cccc2cc(-c3ncc(CC#N)s3)[nH]c12)S(=O)(=O)c1cccs1,186 to 187 °C
24,CSc1cc2c(cc1C(F)(F)F)N(C(=O)Nc1ccccc1)CC2,163 to 165 °C
25,CN(c1cccc2cc(C3=NCC(CC(N)=O)S3)[nH]c12)S(=O)(=O)c1nccs1 (configuration not stated),216 to 218 °C
26,CN1CCN(CCc2nc3cc(Br)c4ccccc4c3n2C)CC1,151 to 157 °C

row,SMILES,melting point
1,CCCN(CCC)Cn1cnc2c1c(=O)n(C)c(=O)n2C,72 to 73 °C
2,CCOC(=O)CCc1cc(Cl)ccc1C(=O)CCCNC(=O)CCCNC(C)=O,95 °C
3,CCNCC1CN(c2c(F)cc3c(=O)c(C(=O)O)cn(C4CC4)c3c2F)C1,237 to 242 °C
4,O=C(O)CCCCCCc1ccccc1CO,75 to 77 °C
5,OCCCN1Cc2cccc3c2N(CC3)c2ccccc21,194 to 196 °C
6,O=C(Nc1ccccc1)C1=CCN(Cc2c[nH]c3ncccc23)CC1,217 to 220 °C
7,CCOC(=O)CCCNC(=O)c1ccc2c(c1)C=CC(C)(C)O2,88 to 89 °C
8,CCCCCCCCCCCCCCCc1ccc(C(=O)c2ccccc2)c(O)c1,46 to 47 °C
9,N#CCc1ccc(OCc2ccccc2)c([N+](=O)[O-])c1,91 to 97 °C
10,CCOC(=O)N1CCN(C(c2ccccc2)c2ccccc2)CC1(C)Cc1ccc(OC)c(OC)c1 (configuration not stated),101 °C
11,COC(=O)c1c2nc3ccccc3c-2[nH]c2ccccc12,152 to 154 °C
12,COC(=O)c1ncsc1CCNC(=O)OCc1ccccc1,108 to 110 °C
13,CCCOc1ccc(C2=NN(C(=O)Nc3ccc(C(F)(F)F)cc3)CC2(C)C(=O)OC)cc1 (configuration not stated),134 to 137 °C
14,COc1ccc(C(=O)CSc2cccc(OC)c2)cc1,53 to 54 °C
15,CCOC(=O)c1cn(-c2cc(N)c(F)c(F)c2F)c2cc(F)c(F)cc2c1=O,116 to 124 °C
16,Cc1nc2c(c(-c3ccccc3)n1)CCN(c1ccnc([C@@H](C)O)n1)C2,114 to 116 °C
17,Cc1nc(-c2cccnc2)sc1-c1ccnc(Nc2ccc(N3CCOCC3)cc2)n1,240 to 242 °C
18,O=c1[nH]c2cc(Cl)ccc2c(O)c1-c1cccc(S(=O)(=O)c2ccccc2)c1,260 °C
19,CCc1cc2c3ccccc3c(C=O)cc2c2ccccc12,138 to 139 °C
20,FC(F)c1nc2ccccc2n1-c1nc(N2CCOCC2)nc(N2CCOCC2)n1,211 to 214 °C
21,CN1CCC(OC2c3ccccc3CCn3c(I)cnc32)CC1 (configuration not stated),163 °C
22,CNC(=C[N+](=O)[O-])NCCSCc1nccs1,103 to 104 °C
23,CC[C@@H](c1ccccc1)N(Cc1ccc(C(=O)OC)cc1)S(=O)(=O)c1ccc(Cl)cc1,108 to 110 °C
24,O=C(O)c1cc(F)ccc1Sc1ccccc1,146 to 148 °C
25,O=[N+]([O-])c1ccc(O)c(Cl)c1Cl,148 to 150 °C
26,COc1cc(C2=NNC(=O)CC2)ccc1OCC1CO1 (configuration not stated),134 to 136 °C

row,SMILES,melting point
1,O=C(O)c1ccc(NCCOc2ccc(F)cc2)cc1,209 to 210 °C
2,CNC(=O)c1ccnc(NC(=O)N2CCC3(CCc4ccc(F)cc4O3)CC2)c1,177 to 179 °C
3,CC(C)(Cc1c2c(nn1CCO)c(N)nc1ccccc12)NS(C)(=O)=O,203 to 204 °C
4,CN1CCN(c2cc3c(cc2F)c(=O)n(O)c(=O)n3-c2cccc(F)c2)CC1,176 to 178 °C
5,CSc1nnc2c3cnn(C)c3ncn12,204 to 206 °C
6,COC(=O)Cn1c(=O)c2ccccc2n(CCCCl)c1=O,144 to 146 °C
7,COc1cc(Cl)ccc1NC(=O)C(C)(C)C,66 to 69 °C
8,CC(C)(C)c1csc(-c2cc3cc(CO)ccc3o2)n1,143 to 144 °C
9,CCCc1c(OCCCCCCc2ccc(C(C)C)c(OC)c2OC)ccc(C(=O)O)c1O,106 to 108 °C
10,Cc1cnc(C(=O)O)cc1C(c1cc(F)ccc1F)S(=O)(=O)c1ccc(Cl)cc1 (configuration not stated),105 to 107 °C
11,CC(O)C1C(=O)N2C(C(=O)OCc3ccccc3)=CCC12 (configuration not stated),94 to 99 °C
12,O=C(O)c1coc(Cl)c1,124 to 125 °C
13,CCCCN(CCCC)CC(=O)N1c2ccccc2N(CCCC)C(=O)c2cnc(-c3ccccc3)nc21,103 to 104 °C
14,CCCCCCCCCCCCCCOc1cc(OC)cc(N)c1OCOC,66 to 67 °C
15,O=C1c2ccccc2C(=O)N1Cc1noc(-c2ncn3c2[C@@H]2CCN2C(=O)c2c-3ccc(F)c2Cl)n1,292 to 294 °C
16,Cc1ccc2c(c1C)OC(C)(C)C2=O,79 to 81 °C
17,CCCC(=O)NCCC1=C(Cc2ccccc2)Cc2ccc(OC)cc21,127 to 129 °C
18,CCCCCCCNC(=O)N(C)c1cccc(-c2ccc(CCC(=O)O)c(F)c2)c1,92 to 93 °C
19,CCN1CCCC1CNC(=O)c1cc(N(C#N)S(C)(=O)=O)ccc1OC (configuration not stated),50 to 54 °C
20,CSc1sc(-c2ccn(S(C)(=O)=O)n2)c2c1C(=O)CC(C)(C)C2,193 to 195 °C
21,NCC1COc2cc(F)cc(-c3cccc(Cl)c3)c2N1 (configuration not stated),76 °C
22,Cn1cc(C2=C(c3c4n(c5ccccc35)CC3(CCN(C(=O)OC(C)(C)C)C3)C4)C(=O)NC2=O)c2ccccc21 (configuration not stated),232 to 235 °C
23,O=C(O)C(CC1CCCCC1)c1ccc(OCc2ccccn2)cc1 (configuration not stated),100 to 103 °C
24,BrC(Br)Cc1ccc(OCc2ccccc2)cc1,97 to 98 °C
